Reference: US11459323B2, “Monocyclic β-lactam compound for treating bacterial infection” (MEDSHINE DISCOVERY INC., priority 2018, dated 2022)
≈ marks a conversion by molar mass, not a printed value.

Assays:
Assay in all cases: MIC on clinically isolated bacteria
Type in all cases: cell-based
[1] = system: Acinetobacter baumannii C361; conditions: Acinetobacter baumannii C361; read-out: Minimum Inhibitory Concentration (MIC)
Source text: (§1) Twenty-five strains of clinically isolated Acinetobacter baumannii and twenty-seven strains of Pseudomonas aeruginosa were respectively selected and used to determine the minimum inhibitory concentration (MIC) of the compounds by micro-liquid dilution method according to the Institute of Clinical and Laboratory Standard (CLSI) requirements.

[2] = system: Acinetobacter baumannii C181; conditions: Acinetobacter baumannii C181; read-out: Minimum Inhibitory Concentration (MIC)
Source text: as §1

[3] = system: Pseudomonas aeruginosa W20; conditions: read-out: MIC
Source text: as §1

Aeruginosa ATCC27853 = conditions: Pseudomonas aeruginosa; Aeruginosa ATCC27853; read-out: MIC
Source text: as §1

[4] = system: Pseudomonas aeruginosa C763; conditions: read-out: MIC
Source text: as §1

[5] = system: Acinetobacter baumannii C313; conditions: Acinetobacter baumannii C313; read-out: Minimum Inhibitory Concentration (MIC)
Source text: as §1

[6] = system: Pseudomonas aeruginosa W6; conditions: read-out: MIC
Source text: as §1

[7] = system: Acinetobacter baumannii C427; conditions: Acinetobacter baumannii C427; read-out: Minimum Inhibitory Concentration (MIC)
Source text: as §1

[8] = system: Acinetobacter baumannii C357; conditions: Acinetobacter baumannii C357; read-out: Minimum Inhibitory Concentration (MIC)
Source text: as §1

[9] = system: Pseudomonas aeruginosa W23; conditions: read-out: MIC
Source text: as §1

[10] = system: Pseudomonas aeruginosa W24; conditions: read-out: MIC
Source text: as §1

[11] = system: Acinetobacter baumannii C395; conditions: Acinetobacter baumannii C395; read-out: Minimum Inhibitory Concentration (MIC)
Source text: as §1

[12] = system: Acinetobacter baumannii C312; conditions: Acinetobacter baumannii C312; read-out: Minimum Inhibitory Concentration (MIC)
Source text: as §1

[13] = system: Acinetobacter baumannii C394; conditions: Acinetobacter baumannii C394; read-out: Minimum Inhibitory Concentration (MIC)
Source text: as §1

[14] = system: Acinetobacter baumannii C390; conditions: Acinetobacter baumannii C390; read-out: Minimum Inhibitory Concentration (MIC)
Source text: as §1

[15] = system: Pseudomonas aeruginosa W27; conditions: read-out: MIC
Source text: as §1

[16] = system: Acinetobacter baumannii C333; conditions: Acinetobacter baumannii C333; read-out: Minimum Inhibitory Concentration (MIC)
Source text: as §1

[17] = system: Acinetobacter baumannii C283; conditions: Acinetobacter baumannii C283; read-out: Minimum Inhibitory Concentration (MIC)
Source text: as §1

[18] = system: Pseudomonas aeruginosa C754; conditions: read-out: MIC
Source text: as §1

[19] = system: Acinetobacter baumannii C408; conditions: Acinetobacter baumannii C408; read-out: Minimum Inhibitory Concentration (MIC)
Source text: as §1

[20] = system: Acinetobacter baumannii C328; conditions: Acinetobacter baumannii C328; read-out: Minimum Inhibitory Concentration (MIC)
Source text: as §1

[21] = system: Pseudomonas aeruginosa M4; conditions: read-out: MIC
Source text: as §1

[22] = system: Pseudomonas aeruginosa W9; conditions: read-out: MIC
Source text: as §1

[23] = system: Pseudomonas aeruginosa W13; conditions: read-out: MIC
Source text: as §1

[24] = system: Pseudomonas aeruginosa C745; conditions: read-out: MIC
Source text: as §1

[25] = system: Acinetobacter baumannii C241; conditions: Acinetobacter baumannii C241; read-out: Minimum Inhibitory Concentration (MIC)
Source text: as §1

[26] = system: Pseudomonas aeruginosa W1; conditions: read-out: MIC
Source text: as §1

[27] = system: Pseudomonas aeruginosa W29; conditions: read-out: MIC
Source text: as §1

[28] = system: Acinetobacter baumannii C281; conditions: Acinetobacter baumannii C281; read-out: Minimum Inhibitory Concentration (MIC)
Source text: as §1

[29] = system: Acinetobacter baumannii C315; conditions: Acinetobacter baumannii C315; read-out: Minimum Inhibitory Concentration (MIC)
Source text: as §1

[30] = system: Acinetobacter baumannii C279; conditions: Acinetobacter baumannii C279; read-out: Minimum Inhibitory Concentration (MIC)
Source text: as §1

[31] = system: Pseudomonas aeruginosa C755; conditions: read-out: MIC
Source text: as §1

[32] = system: Pseudomonas aeruginosa W4; conditions: read-out: MIC
Source text: as §1

[33] = system: Pseudomonas aeruginosa W35; conditions: read-out: MIC
Source text: as §1

[34] = system: Acinetobacter baumannii C330; conditions: Acinetobacter baumannii C330; read-out: Minimum Inhibitory Concentration (MIC)
Source text: as §1

[35] = system: Acinetobacter baumannii C403; conditions: Acinetobacter baumannii C403; read-out: Minimum Inhibitory Concentration (MIC)
Source text: as §1

[36] = system: Pseudomonas aeruginosa M1; conditions: read-out: MIC
Source text: as §1

[37] = system: Pseudomonas aeruginosa W42; conditions: read-out: MIC
Source text: as §1

[38] = system: Acinetobacter baumannii C402; conditions: Acinetobacter baumannii C402; read-out: Minimum Inhibitory Concentration (MIC)
Source text: as §1

[39] = system: Pseudomonas aeruginosa C762; conditions: read-out: MIC
Source text: as §1

Row | MIC [1] [µg/mL] | MIC [2] [µg/mL] | MIC [3] [µg/mL] | MIC (Aeruginosa ATCC27853) [µg/mL] | MIC [4] [µg/mL] | MIC [5] [µg/mL] | MIC [6] [µg/mL] | MIC [7] [µg/mL] | MIC [8] [µg/mL] | MIC [9] [µg/mL] | MIC [10] [µg/mL] | MIC [11] [µg/mL] | MIC [12] [µg/mL] | MIC [13] [µg/mL] | MIC [14] [µg/mL] | MIC [15] [µg/mL] | MIC [16] [µg/mL] | MIC [17] [µg/mL] | MIC [18] [µg/mL] | MIC [19] [µg/mL] | Compound | also measured
1 | 1 (≈ 1.49 µM) | 2 (≈ 2.99 µM) | 2 (≈ 2.99 µM) | 0.5 (≈ 0.747 µM) | 2 (≈ 2.99 µM) | 1 (≈ 1.49 µM) | 4 (≈ 5.97 µM) | 2 (≈ 2.99 µM) | 1 (≈ 1.49 µM) | 0.5 (≈ 0.747 µM) | 2 (≈ 2.99 µM) | 1 (≈ 1.49 µM) | 1 (≈ 1.49 µM) | 1 (≈ 1.49 µM) | 1 (≈ 1.49 µM) | 4 (≈ 5.97 µM) | 2 (≈ 2.99 µM) | 1 (≈ 1.49 µM) | 0.5 (≈ 0.747 µM) | 1 (≈ 1.49 µM) | CC1(C)[C@H](NC(=O)/C(=N\O[C@@H](COc2ccc3c(c2)CN(C(=N)NCCN)C3)C(=O)O)c2csc(N)n2)C(=O)N1OS(=O)(=O)O [Compound 44] | MIC [20]: 1 µg/mL (≈ 1.49 µM); MIC [21]: 0.5 µg/mL (≈ 0.747 µM); MIC [22]: 4 µg/mL (≈ 5.97 µM); MIC [23]: 0.5 µg/mL (≈ 0.747 µM); MIC [24]: 4 µg/mL (≈ 5.97 µM); MIC [25]: 2 µg/mL (≈ 2.99 µM); MIC [26]: 2 µg/mL (≈ 2.99 µM); MIC [27]: 2 µg/mL (≈ 2.99 µM); MIC [28]: 1 µg/mL (≈ 1.49 µM); MIC [29]: 1 µg/mL (≈ 1.49 µM); MIC [30]: 1 µg/mL (≈ 1.49 µM); MIC [31]: 0.5 µg/mL (≈ 0.747 µM); MIC [32]: 0.5 µg/mL (≈ 0.747 µM); MIC [33]: 0.25 µg/mL (≈ 0.373 µM); MIC [34]: 1 µg/mL (≈ 1.49 µM); MIC [35]: 2 µg/mL (≈ 2.99 µM); MIC [36]: 0.5 µg/mL (≈ 0.747 µM); MIC [37]: 0.5 µg/mL (≈ 0.747 µM); MIC [38]: 1 µg/mL (≈ 1.49 µM); MIC [39]: 4 µg/mL (≈ 5.97 µM)
2 | 8 (≈ 11.2 µM) | > 16 | 16 (≈ 22.4 µM) | 2 (≈ 2.81 µM) | > 16 | 16 (≈ 22.4 µM) | > 16 | 16 (≈ 22.4 µM) | 8 (≈ 11.2 µM) | 4 (≈ 5.61 µM) | 16 (≈ 22.4 µM) | 8 (≈ 11.2 µM) | 16 (≈ 22.4 µM) | 16 (≈ 22.4 µM) | 16 (≈ 22.4 µM) | 16 (≈ 22.4 µM) | 16 (≈ 22.4 µM) | 16 (≈ 22.4 µM) | 4 (≈ 5.61 µM) | 8 (≈ 11.2 µM) | CC1(C)[C@H](NC(=O)/C(=N\O[C@@H](COc2ccc3c(c2)CN(C(=N)N(CCN)CCN)C3)C(=O)O)c2csc(N)n2)C(=O)N1OS(=O)(=O)O [Compound 45] | MIC [20]: 16 µg/mL (≈ 22.4 µM); MIC [21]: 0.25 µg/mL (≈ 0.351 µM); MIC [22]: 16 µg/mL (≈ 22.4 µM); MIC [23]: 4 µg/mL (≈ 5.61 µM); MIC [24]: > 16 µg/mL; MIC [25]: > 16 µg/mL; MIC [26]: 16 µg/mL (≈ 22.4 µM); MIC [27]: 16 µg/mL (≈ 22.4 µM); MIC [28]: 16 µg/mL (≈ 22.4 µM); MIC [29]: 16 µg/mL (≈ 22.4 µM); MIC [30]: 16 µg/mL (≈ 22.4 µM); MIC [31]: 4 µg/mL (≈ 5.61 µM); MIC [32]: 2 µg/mL (≈ 2.81 µM); MIC [33]: 2 µg/mL (≈ 2.81 µM); MIC [34]: 16 µg/mL (≈ 22.4 µM); MIC [35]: 16 µg/mL (≈ 22.4 µM); MIC [36]: 4 µg/mL (≈ 5.61 µM); MIC [37]: 4 µg/mL (≈ 5.61 µM); MIC [38]: 8 µg/mL (≈ 11.2 µM); MIC [39]: > 16 µg/mL
3 | 4 (≈ 5.04 µM) | 4 (≈ 5.04 µM) | 1 (≈ 1.26 µM) | 0.5 (≈ 0.631 µM) | 4 (≈ 5.04 µM) | 4 (≈ 5.04 µM) | 1 (≈ 1.26 µM) | 4 (≈ 5.04 µM) | 4 (≈ 5.04 µM) | 0.25 (≈ 0.315 µM) | 1 (≈ 1.26 µM) | 4 (≈ 5.04 µM) | 4 (≈ 5.04 µM) | 4 (≈ 5.04 µM) | 4 (≈ 5.04 µM) | 1 (≈ 1.26 µM) | 4 (≈ 5.04 µM) | 4 (≈ 5.04 µM) | 0.5 (≈ 0.631 µM) | 4 (≈ 5.04 µM) | CC1(C)[C@H](NC(=O)/C(=N\O[C@@H](COc2ccc3c(c2)CN(/C(=N\[C@@H]2CCCNC2)N[C@@H]2CCCNC2)C3)C(=O)O)c2csc(N)n2)C(=O)N1OS(=O)(=O)O [Compound 46] | MIC [20]: 4 µg/mL (≈ 5.04 µM); MIC [21]: 1 µg/mL (≈ 1.26 µM); MIC [22]: 1 µg/mL (≈ 1.26 µM); MIC [23]: 0.25 µg/mL (≈ 0.315 µM); MIC [24]: 4 µg/mL (≈ 5.04 µM); MIC [25]: 4 µg/mL (≈ 5.04 µM); MIC [26]: 1 µg/mL (≈ 1.26 µM); MIC [27]: 1 µg/mL (≈ 1.26 µM); MIC [28]: 4 µg/mL (≈ 5.04 µM); MIC [29]: 4 µg/mL (≈ 5.04 µM); MIC [30]: 4 µg/mL (≈ 5.04 µM); MIC [31]: 0.5 µg/mL (≈ 0.631 µM); MIC [32]: 1 µg/mL (≈ 1.26 µM); MIC [33]: 0.25 µg/mL (≈ 0.315 µM); MIC [34]: 4 µg/mL (≈ 5.04 µM); MIC [35]: 4 µg/mL (≈ 5.04 µM); MIC [36]: 1 µg/mL (≈ 1.26 µM); MIC [37]: 0.5 µg/mL (≈ 0.631 µM); MIC [38]: 4 µg/mL (≈ 5.04 µM); MIC [39]: 8 µg/mL (≈ 10.1 µM)
